Assay results reported in US9920049B2 (priority 2014, dated 2018).

Test system: HBsAg
Assay: HBsAg assay (CLIA of secreted HBsAg in HepG2.2.15 culture supernatant)
Format: cell-based, HBV
Conditions: Hepatitis B virus
Procedure: HepG2.2.15 cells (Acs et al. Proc Natl Acad Sci USA, 84, (1987), 4641-4), a constitutively HBV-expressing cell line were cultured in DMEM+Glutamax-I medium (Invitrogen, Carlsbad, Calif., USA), supplemented with 10% fetal bovine serum (Invitrogen) and G418 (Invitrogen) at a final concentration of 200 mg/L and maintained in 5% CO2 at 37° C.
HepG2.2.15 cells were seeded in duplicate into white, 96-well plates at 1.5×10^4 cells/well. The cells were treated with a three-fold serial dilution series of the compounds in DMSO. The final DMSO concentration in all wells was 1% and DMSO was used as no drug control.
The HBsAg chemiluminescence immunoassay (CLIA) kit (Autobio Diagnostics Co., Zhengzhou, China, Catalog number: CL0310-2) was used to measure the levels of secreted HBV antigens semi-quantitatively. For the detection 50 μL/well culture supernatant was used and HBsAg was quantified using HBsAg chemiluminescence immunoassay (CLIA) kit (Autobio Diagnostics Co., Zhengzhou, China, Catalog number: CL0310-2), 50 μl of the supernatant was transferred to the CLIA assay plate and 50 μL of enzyme conjugate reagent was added into each well. The plates were sealed and gently agitated for 1 hour at room temperature. The supernatant-enzyme-mixture was discarded and wells were washed 6 times with 300 μL of PBS. The residual liquid was removed by plating the CLIA plate right side down on absorbent tissue paper. 25 μL of substrates A and B were added to each well. Luminance was measured using a luminometer (Mithras LB 940 Multimode Microplate Reader) after 10 minutes incubation. Dose-response curves were generated and the IC50 value was extrapolated by using the E-WorkBook Suite (ID Business Solutions Ltd., Guildford, UK).
The compounds of the present invention were tested for their capacity to inhibit HBsAg as described herein.

| SMILES | IC50 [µM] |
| --- | --- |
| CCC1Cc2cc(OCCCOC)c(OC)cc2-c2cc(=O)c(C(=O)N3CCOC(C(=O)O)C3)cn21 (stereo not shown) [Example 13, 4-[6-ethyl-10-methoxy-9-(3-methoxypropoxy)-2-oxo-6,7-dihydrobenzo[a]quinolizine-3-carbonyl]morpholine-2-carboxylic Acid] | 36.6 |
| CCC1Cc2cc(OCCCOC)c(OC)cc2-c2cc(=O)c(CN3CCCCC3)cn21 (stereo not shown) [Example 24, 6-ethyl-10-methoxy-9-(3-methoxypropoxy)-3-(1-piperidylmethyl)-6,7-dihydrobenzo[a]quinolizin-2-one] | 12.6 |
| CCC1Cc2cc(OCc3ccccc3)c(OC)cc2-c2cc(=O)c(C(=O)NCCN(C)C)cn21 (stereo not shown) [Example 8] | 33.7 |
| CCC1Cc2cc(OCCCOC)c(OC)cc2-c2cc(=O)c(CNC)cn21 (stereo not shown) [Example 27, 6-ethyl-10-methoxy-9-(3-methoxypropoxy)-3-(methylaminomethyl)-6,7-dihydrobenzo[a]quinolizin-2-one] | 15.8 |
